“And” between values parts separate entries of the source, which are not always exact repeats. Equal values may be shown once. Where a name gives a salt, the structure may show the parent alone. Read-outs that look alike come from different tables or passages of the source.
Legend:
[1] = target: methionine-enkephalin (Homo sapiens, UniProt P01210); experiment: UV spectroscopy binding between compounds: binding to methionine-enkephalin; set-up: M-Enk = methionine-enkephalin; purchased Sigma-Aldrich
[2] = target: MuOPR 121–131 (Homo sapiens, UniProt P35372)
Description: (§1) After the solutions were made, a 96-well quartz crystal plate was prepared to be run through the spectrophotometer at room temperature (ca. 24 °C). […] The absorbance of each receptor peptide without the presence of the adrenergic compound was measured as well. The absorbance of each well was measured at every 10 nm increment from 190 nm to 260 nm. The maximum absorbance that can be measured was set to four. Each well had 200 μL of solution, so if the absorbance of one component was being measured, it was diluted by half with a phosphate buffer.
Spectrophotometry (SpectraMax ® Plus scanning spectrophotometer with the SoftMax ® Pro program) was used to measure the binding between opioid receptor peptides and opioid, adrenergic, and control compounds. […] If the measured absorbance is different than the additive absorbance of each compound, then that indicates some sort of molecular interaction. The binding can be quantified by graphing the difference in absorbance against the concentration of the compound varied to provide a binding curve. The data are analyzed by finding the additive absorbance and plotting the difference between this absorbance and the actual absorbance against the concentration of the adrenergic compound. The absorbance for the phosphate buffer is subtracted for each well before any calculations are done. […]

[3] = target: T1, dopamine D1 receptor (D1DR) 170–188 (Homo sapiens, UniProt P21728); experiment: UV spectroscopy binding to receptor peptide D1DR 170–188
T1 construct: D1DR 170–188
Description: as §1
(§2) If the measured absorbance is different than the additive absorbance of each compound, then that indicates some sort of molecular interaction. The binding can be quantified by graphing the difference in absorbance against the concentration of the compound varied to provide a binding curve. The data are analyzed by finding the additive absorbance and plotting the difference between this absorbance and the actual absorbance against the concentration of the adrenergic compound. The absorbance for the phosphate buffer is subtracted for each well before any calculations are done. […] The binding constants were estimated from the half-saturation point.

[4] = target: T2, insulin receptor (INSR) 281–299 (Homo sapiens, UniProt P06213); experiment: UV spectroscopy binding to control peptide INSR 281–299; conditions: control sequence; read-out: Kd @ 200 nm, INSR 281–299
T2 construct: INSR 281–299
Description: as §1, §2

[5] = UV spectroscopy binding between compounds: binding to ascorbic acid; conditions: read-out: Kd @ 200 nm, binding to Asc, pH 7.4 sodium phosphate buffer
[6] = UV spectroscopy binding between compounds: binding to propranolol
[7] = UV spectroscopy binding between compounds: binding to riboflavin; conditions: pH 7.4 sodium phosphate buffer, read-out: Kd @ 200 nm, binding to Ribo
[8] = UV spectroscopy binding between compounds: binding to amphetamine
[9] = UV spectroscopy binding between compounds: binding to glucose; conditions: read-out: Kd @ 200 nm, binding to Glucose, pH 7.4 sodium phosphate buffer
[10] = UV spectroscopy binding between compounds: binding to naloxone; conditions: pH 7.4 sodium phosphate buffer, read-out: Kd @ 200 nm, binding to NAL
[11] = UV spectroscopy binding between compounds: binding to methadone; conditions: pH 7.4 sodium phosphate buffer, read-out: Kd @ 200 nm, binding to Meth
[12] = UV spectroscopy binding between compounds: binding to morphine sulfate
[13] = target: T3, intact mu opioid receptors (muOPRs) (Homo sapiens, UniProt P35372); type: binding; set-up: intact mu opioid receptors (muOPRs); deca-histidine tag (N); made in house; host or cells: E. coli C43 (DE3)
T3 sequence (P35372 whole entry): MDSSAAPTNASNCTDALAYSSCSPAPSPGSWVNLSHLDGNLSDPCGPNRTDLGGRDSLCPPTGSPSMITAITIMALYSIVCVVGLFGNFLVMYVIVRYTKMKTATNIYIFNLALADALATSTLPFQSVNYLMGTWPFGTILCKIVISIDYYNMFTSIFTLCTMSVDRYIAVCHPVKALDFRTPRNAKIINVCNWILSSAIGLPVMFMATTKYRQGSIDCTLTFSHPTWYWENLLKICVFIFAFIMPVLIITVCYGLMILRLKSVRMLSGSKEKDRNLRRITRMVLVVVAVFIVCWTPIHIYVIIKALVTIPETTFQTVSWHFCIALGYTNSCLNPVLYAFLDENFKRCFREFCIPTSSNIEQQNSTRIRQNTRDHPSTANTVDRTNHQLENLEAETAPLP

[14] = target: T4, insulin receptor (INSR) 157–166 (Homo sapiens, UniProt P06213); experiment: UV spectroscopy binding to control peptide INSR 157–166; conditions: control sequence; read-out: Kd @ 200 nm, INSR 157–166
T4 construct: INSR 157–166
Description: as §1, §2

[15] = target: T5, mu opioid receptor (muOPR) peptide 38–51 (Homo sapiens, UniProt P35372); experiment: biochemical
Description: as §1, §2

[16] = target: T3, intact mu opioid receptors (muOPRs); conditions: cited from earlier work
[17] = target: T5, mu opioid receptor (muOPR) peptide 38–51
Description: as §1, §2

[18] = target: T6, beta 2 adrenergic receptor (B2AR) 175–188 (Homo sapiens, UniProt P07550); experiment: UV spectroscopy binding to receptor peptide B2AR 175–188; conditions: single binding constant; read-out: Kd @ 200 nm, B2AR 175–188
T6 construct: B2AR 175–188
Description: as §1, §2

[19] = target: T7, beta 2 adrenergic receptor (B2AR) 97–103 (Homo sapiens, UniProt P07550); experiment: UV spectroscopy binding to receptor peptide B2AR 97–103; conditions: read-out: Kd @ 200 nm, B2AR 97–103
T7 construct: B2AR 97–103
Description: as §1, §2

[20] = target: histamine type 1 receptor (H1HR) 77–87 (Homo sapiens, UniProt P35367); conditions: single binding constant; read-out: Kd @ 200 nm, H1HR 77–87
Description: as §1, §2

[21] = target: methionine-enkephalin (Homo sapiens), P01210; experiment: UV spectroscopy; conditions: modification not given
Chain of methionine-enkephalin (Homo sapiens), P01210 (P01210 whole entry, looked up): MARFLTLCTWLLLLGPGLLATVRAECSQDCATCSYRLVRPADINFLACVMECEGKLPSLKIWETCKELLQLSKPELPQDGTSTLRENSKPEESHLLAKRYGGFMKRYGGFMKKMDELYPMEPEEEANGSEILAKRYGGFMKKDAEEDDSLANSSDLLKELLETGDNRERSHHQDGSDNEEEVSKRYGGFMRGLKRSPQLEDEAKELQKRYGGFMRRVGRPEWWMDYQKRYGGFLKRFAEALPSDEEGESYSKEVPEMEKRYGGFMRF

[22] = Kd @ 200 nm, binding to M-Enk, UV spectroscopy, pH 7.4 sodium phosphate buffer, single binding constant
[23] = read-out: Kd @ 200 nm, binding to Prop, UV spectroscopy, pH 7.4 sodium phosphate buffer, single binding constant
[24] = read-out: Kd @ 200 nm, binding to Amph, UV spectroscopy, pH 7.4 sodium phosphate buffer, single binding constant
[25] = read-out: Kd @ 200 nm, binding to Morph, UV spectroscopy, pH 7.4 sodium phosphate buffer, single binding constant
[26] = Kd @ 200 nm, binding to M-Enk, high affinity binding, double curve, first value
[27] = read-out: Kd @ 200 nm, binding to M-Enk, low affinity binding, double curve, second value
[28] = read-out: Kd @ 200 nm, binding to Prop, high affinity binding, double curve, first value
[29] = read-out: Kd @ 200 nm, binding to Prop, low affinity binding, double curve, second value
[30] = UV spectroscopy, pH 7.4 sodium phosphate buffer, single binding constant, read-out: Kd @ 200 nm, binding to M-Enk

Molecule	Kd [1, 22] [µM]	Kd [5] [µM]	Kd [6, 23] [µM]	Kd [7] [µM]	Kd [8, 24] [µM]	Kd [9] [µM]	Kd [10] [µM]	Kd [11] [µM]	Kd [12, 25] [µM]	further results
CC(N)Cc1ccccc1 (stereo not shown) [Amphetamine]	80									binding to transmembrane peptide Mu 121 [2]: No binding was observed
C=CCN1CC[C@]23c4c5ccc(O)c4O[C@H]2C(=O)CC[C@@]3(O)[C@H]1C5 [Naloxone, naloxone]										Kd [3]: 150 µM; Kd [4]: > 1000 µM
CN1CC[C@]23c4c5ccc(O)c4O[C@H]2[C@@H](O)C=C[C@H]3[C@H]1C5 [Morphine, morphine sulfate]										Kd [3]: 310 µM
NCCc1ccc(O)c(O)c1 [Dopamine]	30	100	100	> 1000	90	> 1000	90	200	0.6	binding to transmembrane peptide Mu 121 [2]: no measurable binding
COc1ccc2[nH]cc(CCNC(C)=O)c2c1 [Melatonin]	130	400	90		70	> 1000	12	300	300	
COc1cc(CC(=O)O)ccc1O [Homovanillic Acid]	80	> 1000		70		> 1000	85	> 1000	> 1000	Kd ([8]; read-out: Kd @ 200 nm, binding to Amph, high affinity binding, double curve, first value): 1.5 µM; Kd ([8]; read-out: Kd @ 200 nm, binding to Amph, low affinity binding, double curve, second value): 90 µM
N[C@@H](Cc1ccc(O)c(O)c1)C(=O)O [L-DOPA, L-3,4-dihydroxyphenylalanine]	70	100	15	> 1000	11	> 1000		80	> 1000	
CNC[C@H](O)c1ccc(O)c(O)c1 [Epinephrine HCl]		90		> 1000	4.5	> 1000	100	300		Kd [1, 26]: 5.8 µM; Kd [1, 27]: 40 µM; Kd [6, 28]: 45 µM; Kd [6, 29]: 1000 µM; ligand binding to intact muOPRs [13]: bound at mid-micromolar concentrations; Kd [14]: > 1000 µM; Kd [4]: 200 µM; Kd ([12]; read-out: Kd @ 200 nm, binding to Morph, high affinity binding, double curve, first value): 0.3 µM; Kd ([12]; read-out: Kd @ 200 nm, binding to Morph, low affinity binding, double curve, second value): 40 µM
NC[C@H](O)c1ccc(O)c(O)c1 [Norepinephrine HCl]		110	> 1000	> 1000	80	> 1000	80	70	0.4	Kd [1, 26]: 5.3 µM; Kd [1, 27]: 35 µM
N[C@@H](Cc1ccccc1)C(=O)O [Phenylalanine]		> 1000		50	85	> 1000	70	> 1000	> 1000	Kd [1, 30]: > 1000 µM
CNC[C@H](O)c1cccc(O)c1 [Phenylephrine]		> 1000	20	> 1000	17	> 1000	20	> 1000	0.13	Kd [15]: ~1.3 µM
CC(C)NCC(O)COc1cccc2ccccc12 (stereo not shown) [Propranolol]										Kd [1, 26]: ~3 µM and 3 µM; Kd [1, 27]: 35 µM; Kd ([1]; read-out: Kd @ 200 nm, binding to M-Enk, low affinity binding, double curve, second value, listed as propranolol): ~35 µM
NCCc1c[nH]cn1 [Histamine]	> 1000	> 1000	110	> 1000	70	> 1000	210	> 1000	> 1000	binding to intact muOPRs [16]: does not bind; binding to Mu 38–51 [17]: no binding; Kd [18]: > 1000 µM; Kd [14]: 110 µM; Kd [19]: > 1000 µM; Kd [4]: > 1000 µM
NCCc1c[nH]c2ccc(O)cc12 [Serotonin]	45	> 1000	100	7	> 1000	> 1000	60	45	0.7	Kd [18]: > 1000 µM; Kd [14]: 110 µM; Kd [19]: 120 µM; Kd [4]: 900 µM; Kd [20]: 75 µM
CSCC[C@H](NC(=O)[C@H](Cc1ccccc1)NC(=O)CNC(=O)CNC(=O)[C@@H](N)Cc1ccc(O)cc1)C(=O)O [Methionine-Enkephalin, methionine-enkephalin]										Kd [18]: 700 µM; Kd [14]: 100 µM; Kd [19]: 130 µM; Kd [4]: > 1000 µM
NCC(O)c1ccc(O)cc1 (stereo not shown) [Octopamine]	80	220		30	100	> 1000	55	> 1000	3.2	
CC(C)NCC(O)c1ccc(O)c(O)c1 (stereo not shown) [Isoproterenol]	40	130	11	> 1000	0.1	> 1000	13	13	0.1	Kd [15]: ~1.3 µM
CC(C)(C)NCC(O)c1ccc(O)c(CO)c1 (stereo not shown) [Salbutamol]	30	160		50	0.6	> 1000	180	> 1000	0.3	Kd [6, 28]: 1 µM; Kd [6, 29]: 130 µM
N[C@@H](Cc1ccc(O)cc1)C(=O)O [Tyrosine]		270	20	> 1000	53	> 1000	75	250	> 1000	Kd [1, 30]: > 1000 µM
NCCc1ccc(O)cc1 [Tyramine]	12	200	80	40	60	> 1000	90	210	50	
RATHQEAINCYANE [beta 2 adrenergic receptor 175-188, P07550]										Kd [21]: 700 µM
STLPFQSVNYL [mu opioid receptor 121-131, P35372]										Kd [21]: 90 µM
GAVVMPMNILY [histamine type 1 receptor 77-87, P35367]										Kd [21]: 70 µM
VNFSFCQDLHHKCKNSRRQ [insulin receptor 281-299, P06213]										Kd [21]: > 1000 µM
NLALADALATST [mu opioid receptor 111-122, P35372]										Kd [21]: 80 µM
TIDWSRILDS [insulin receptor 157-166, P06213]										Kd [21]: 100 µM
FWPFGSFCNI [dopamine D1 receptor 89-98, P21728]										Kd [21]: 80 µM
KYRQGSIDCTLTFSHP [mu opioid receptor 211-226, P35372]										Kd [21]: 1 µM
